Test results from ChEMBL document CHEMBL4393697, “Lipophilic efficient phenylthiazoles with potent undecaprenyl pyrophosphatase inhibitory activity” (Eur J Med Chem, 2019).
≈ marks a conversion by molar mass, not a printed value. Calls of active or inactive are those of the source. No cut-off for these calls is given here.

How the values were obtained:
Staphylococcus aureus [1] = assay: Antibacterial activity against vancomycin resistant Staphylococcus aureus VRS10 assessed as reduction in bacterial cell growth incubated for 18 to 20 hrs by broth microdilution method; type: functional
Staphylococcus aureus [2] = assay: Antibacterial activity against methicillin-resistant Staphylococcus aureus USA400 assessed as reduction in CFU at 4 x MIC preincubated for 12 hrs in Tryptic soy broth followed by incubation for 18 to 20 hrs on TSA plate by time-kill assay; type: functional
Staphylococcus aureus [3] = assay: Antibacterial activity against vancomycin resistant Staphylococcus aureus VRS12 assessed as reduction in bacterial cell growth incubated for 18 to 20 hrs by broth microdilution method; type: functional
Staphylococcus aureus [4] = assay: Antibacterial activity against vancomycin resistant Staphylococcus aureus VRS11a assessed as reduction in bacterial cell growth incubated for 18 to 20 hrs by broth microdilution method; type: functional
Staphylococcus aureus [5] = assay: Antibacterial activity against intracellular methicillin resistant Staphylococcus aureus USA400 infected in mouse J774 cells assessed as log10 reduction of viable bacterial cells incubated for 24 hrs followed by re-plating on tryptic soy agar plates at 37 degC for 18 to 22 hrs by broth microdilution assay; type: functional
Enterococcus faecalis [6] = assay: Antibacterial activity against vancomycin resistant Enterococcus faecalis ATCC 51299 assessed as reduction in bacterial cell growth incubated for 18 to 20 hrs by broth microdilution method; type: functional
Enterococcus faecium [7] = assay: Antibacterial activity against vancomycin resistant Enterococcus faecium ATCC 700221 assessed as reduction in bacterial cell growth incubated for 18 to 20 hrs by broth microdilution method; type: functional
Listeria monocytogenes [8] = assay: Antibacterial activity against Listeria monocytogenes ATCC 19111 assessed as reduction in bacterial cell growth incubated for 18 to 20 hrs by broth microdilution method; type: functional
Streptococcus pneumoniae [9] = assay: Antibacterial activity against Cephalosporin resistant Streptococcus pneumoniae ATCC 51916 assessed as reduction in bacterial cell growth incubated for 18 to 20 hrs by broth microdilution method; type: functional
Streptococcus pneumoniae [10] = assay: Antibacterial activity against Methicillin resistant Streptococcus pneumoniae ATCC 700677 assessed as reduction in bacterial cell growth incubated for 18 to 20 hrs by broth microdilution method; type: functional
Staphylococcus aureus [11] = assay: Bactericidal activity against Staphylococcus aureus ATCC 6538 assessed as reduction in bacterial cell growth incubated for 18 to 20 hrs followed by re-plating on tryptic soy agar plates at 37 degC for 18 hrs by broth microdilution assay; type: functional
Staphylococcus aureus [12] = assay: Bactericidal activity against Staphylococcus aureus NRS107 assessed as reduction in bacterial cell growth incubated for 18 to 20 hrs followed by re-plating on tryptic soy agar plates at 37 degC for 18 hrs by broth microdilution assay; type: functional
Staphylococcus aureus [13] = assay: Bactericidal activity against methicillin resistant Staphylococcus aureus NRS119 assessed as reduction in bacterial cell growth incubated for 18 to 20 hrs followed by re-plating on tryptic soy agar plates at 37 degC for 18 hrs by broth microdilution assay; type: functional
Staphylococcus aureus [14] = assay: Bactericidal activity against methicillin-resistant Staphylococcus aureus USA300 assessed as reduction in bacterial cell growth incubated for 18 to 20 hrs followed by re-plating on tryptic soy agar plates at 37 degC for 18 hrs by broth microdilution assay; type: functional
Staphylococcus aureus [15] = assay: Bactericidal activity against vancomycin resistant Staphylococcus aureus VRS10 assessed as reduction in bacterial cell growth incubated for 18 to 20 hrs followed by re-plating on tryptic soy agar plates at 37 degC for 18 hrs by broth microdilution assay; type: functional
Staphylococcus aureus [16] = assay: Bactericidal activity against vancomycin resistant Staphylococcus aureus VRS11a assessed as reduction in bacterial cell growth incubated for 18 to 20 hrs followed by re-plating on tryptic soy agar plates at 37 degC for 18 hrs by broth microdilution assay; type: functional
Staphylococcus aureus [17] = assay: Bactericidal activity against vancomycin resistant Staphylococcus aureus VRS12 assessed as reduction in bacterial cell growth incubated for 18 to 20 hrs followed by re-plating on tryptic soy agar plates at 37 degC for 18 hrs by broth microdilution assay; type: functional
Enterococcus faecalis [18] = assay: Bactericidal activity against vancomycin resistant Enterococcus faecalis ATCC 51299 assessed as reduction in bacterial cell growth incubated for 18 to 20 hrs followed by re-plating on tryptic soy agar plates at 37 degC for 18 hrs by broth microdilution assay; type: functional
Enterococcus faecium [19] = assay: Bactericidal activity against vancomycin resistant Enterococcus faecium ATCC 700221 assessed as reduction in bacterial cell growth incubated for 18 to 20 hrs followed by re-plating on tryptic soy agar plates at 37 degC for 18 hrs by broth microdilution assay; type: functional
Streptococcus pneumoniae [20] = assay: Bactericidal activity against Cephalosporin resistant Streptococcus pneumoniae ATCC 51916 assessed as reduction in bacterial cell growth incubated for 18 to 20 hrs followed by re-plating on tryptic soy agar plates at 37 degC for 18 hrs by broth microdilution assay; type: functional
Staphylococcus aureus [21] = assay: Antibacterial activity against Staphylococcus aureus NRS107 assessed as reduction in bacterial cell growth incubated for 18 to 20 hrs by broth microdilution method; type: functional
Staphylococcus aureus [22] = assay: Antibacterial activity against methicillin resistant Staphylococcus aureus USA400 assessed as reduction in bacterial cell growth incubated for 18 to 20 hrs by broth microdilution method; type: functional
Staphylococcus aureus [23] = assay: Antibacterial activity against methicillin-resistant Staphylococcus aureus USA300 assessed as reduction in bacterial cell growth incubated for 18 to 20 hrs by broth microdilution method; type: functional
Staphylococcus aureus [24] = assay: Antibacterial activity against methicillin resistant Staphylococcus aureus NRS119 assessed as reduction in bacterial cell growth incubated for 18 to 20 hrs by broth microdilution method; type: functional
Staphylococcus aureus [25] = assay: Antibacterial activity against Staphylococcus aureus ATCC 6538 assessed as reduction in bacterial cell growth incubated for 18 to 20 hrs by broth microdilution method; type: functional
[26] = test system: Staphylococcus epidermidis; assay: Antibacterial activity against methicillin resistant Staphylococcus epidermidis NRS101 assessed as reduction in bacterial cell growth incubated for 18 to 20 hrs by broth microdilution method; type: functional
[27] = test system: Staphylococcus epidermidis; assay: Bactericidal activity against methicillin resistant Staphylococcus epidermidis NRS101 assessed as reduction in bacterial cell growth incubated for 18 to 20 hrs followed by re-plating on tryptic soy agar plates at 37 degC for 18 hrs by broth microdilution assay; type: functional
Listeria monocytogenes [28] = assay: Bactericidal activity against Listeria monocytogenes ATCC 19111 assessed as reduction in bacterial cell growth incubated for 18 to 20 hrs followed by re-plating on tryptic soy agar plates at 37 degC for 18 hrs by broth microdilution assay; type: functional
Streptococcus pneumoniae [29] = assay: Bactericidal activity against Methicillin resistant Streptococcus pneumoniae ATCC 700677 assessed as reduction in bacterial cell growth incubated for 18 to 20 hrs followed by re-plating on tryptic soy agar plates at 37 degC for 18 hrs by broth microdilution assay; type: functional
Acinetobacter baumannii [30] = assay: Antibacterial activity against Acinetobacter baumannii ATCC 19606 assessed as reduction in bacterial cell growth incubated for 18 to 20 hrs by broth microdilution method; type: functional
Escherichia coli [31] = assay: Antibacterial activity against Escherichia coli BW25113 assessed as reduction in bacterial cell growth incubated for 18 to 20 hrs by broth microdilution method; type: functional
Escherichia coli [32] = assay: Antibacterial activity against Escherichia coli JW55031 harboring deltatolC mutant assessed as reduction in bacterial cell growth incubated for 18 to 20 hrs by broth microdilution method; type: functional
Klebsiella pneumoniae [33] = assay: Antibacterial activity against Klebsiella pneumoniae BAA-1706 assessed as reduction in bacterial cell growth incubated for 18 to 20 hrs by broth microdilution method; type: functional
Pseudomonas aeruginosa [34] = assay: Antibacterial activity against Pseudomonas aeruginosa ATCC 15442 assessed as reduction in bacterial cell growth incubated for 18 to 20 hrs by broth microdilution method; type: functional
Acinetobacter baumannii [35] = assay: Bactericidal activity against Acinetobacter baumannii ATCC 19606 assessed as reduction in bacterial cell growth incubated for 18 to 20 hrs followed by re-plating on tryptic soy agar plates at 37 degC for 18 hrs by broth microdilution assay; type: functional
Escherichia coli [36] = assay: BActericidal activity against Escherichia coli BW25113 assessed as reduction in bacterial cell growth incubated for 18 to 20 hrs followed by re-plating on tryptic soy agar plates at 37 degC for 18 hrs by broth microdilution assay; type: functional
Escherichia coli [37] = assay: Bactericidal activity against Escherichia coli JW55031 harboring deltatolC mutant assessed as reduction in bacterial cell growth incubated for 18 to 20 hrs followed by re-plating on tryptic soy agar plates at 37 degC for 18 hrs by broth microdilution assay; type: functional
Klebsiella pneumoniae [38] = assay: Bactericidal activity against Klebsiella pneumoniae BAA-1706 assessed as reduction in bacterial cell growth incubated for 18 to 20 hrs followed by re-plating on tryptic soy agar plates at 37 degC for 18 hrs by broth microdilution assay; type: functional
Pseudomonas aeruginosa [39] = assay: Bactericidal activity against Pseudomonas aeruginosa ATCC 15442 assessed as reduction in bacterial cell growth incubated for 18 to 20 hrs followed by re-plating on tryptic soy agar plates at 37 degC for 18 hrs by broth microdilution assay; type: functional
J774 = assay: Cytotoxicity against mouse J774 assessed as reduction in cell viability at 16 ug/ml incubated for 24 hrs by MTS assay; type: cell-based; conditions: j774, 24 h
[40] = Solubility of compound in PBS after 2 hrs by turbidity based absorbance analysis; type: physicochemical

CN[C@H](CC(C)C)C(=O)N[C@H]1C(=O)N[C@@H](CC(N)=O)C(=O)N[C@H]2C(=O)N[C@H]3C(=O)N[C@H](C(=O)N[C@H](C(=O)O)c4cc(O)cc(O)c4-c4cc3ccc4O)[C@H](O)c3ccc(c(Cl)c3)Oc3cc2cc(c3O[C@@H]2O[C@H](CO)[C@@H](O)[C@H](O)[C@H]2O[C@H]2C[C@](C)(N)[C@H](O)[C@H](C)O2)Oc2ccc(cc2Cl)[C@H]1O [VANCOMYCIN]
MIC (Staphylococcus aureus [1]): > 64 µg/mL | inhibition (Staphylococcus aureus [2]): Active | MIC (Staphylococcus aureus [3]): 64 µg/mL (≈ 44.2 µM) | MIC (Staphylococcus aureus [4]): > 64 µg/mL | inhibition (Staphylococcus aureus [5]): inactive | MIC (Enterococcus faecalis [6]): 32 µg/mL (≈ 22.1 µM) | MIC (Enterococcus faecium [7]): > 64 µg/mL | MIC (Listeria monocytogenes [8]): 1 µg/mL (≈ 0.69 µM) | MIC (Streptococcus pneumoniae [9]): 1 µg/mL (≈ 0.69 µM) | MIC (Streptococcus pneumoniae [10]): 2 µg/mL (≈ 1.38 µM) | MBC (Staphylococcus aureus [11]): 1 µg/mL (≈ 0.69 µM) | MBC (Staphylococcus aureus [12]): 2 µg/mL (≈ 1.38 µM) | MBC (Staphylococcus aureus [13]): 1 µg/mL (≈ 0.69 µM) | MBC (Staphylococcus aureus [14]): 4 µg/mL (≈ 2.76 µM) | MBC (Staphylococcus aureus [15]): > 64 µg/mL | MBC (Staphylococcus aureus [16]): > 64 µg/mL | MBC (Staphylococcus aureus [17]): 64 µg/mL (≈ 44.2 µM) | MBC (Enterococcus faecalis [18]): > 64 µg/mL | MBC (Enterococcus faecium [19]): > 64 µg/mL | MBC (Streptococcus pneumoniae [20]): 1 µg/mL (≈ 0.69 µM)

C/C(=N\NC(=N)N)c1sc(-c2ccc(C#Cc3cccs3)cc2)nc1C
MIC (Staphylococcus aureus [21]): 2 µg/mL (≈ 5.27 µM) | MIC (Staphylococcus aureus [22]): 2 µg/mL (≈ 5.27 µM) | MIC (Staphylococcus aureus [23]): 4 µg/mL (≈ 10.5 µM) | MIC (Staphylococcus aureus [24]): 2 µg/mL (≈ 5.27 µM) | MIC (Staphylococcus aureus [1]): 8 µg/mL (≈ 21.1 µM) | MIC (Staphylococcus aureus [25]): 1 µg/mL (≈ 2.63 µM) | MIC [26]: 1 µg/mL (≈ 2.63 µM) | MIC (Staphylococcus aureus [3]): 8 µg/mL (≈ 21.1 µM) | MIC (Staphylococcus aureus [4]): 1 µg/mL (≈ 2.63 µM) | MIC (Enterococcus faecalis [6]): 64 µg/mL (≈ 169 µM) | MIC (Enterococcus faecium [7]): 4 µg/mL (≈ 10.5 µM) | MIC (Listeria monocytogenes [8]): 8 µg/mL (≈ 21.1 µM) | MIC (Streptococcus pneumoniae [9]): 4 µg/mL (≈ 10.5 µM) | MIC (Streptococcus pneumoniae [10]): 4 µg/mL (≈ 10.5 µM) | MBC (Staphylococcus aureus [11]): 2 µg/mL (≈ 5.27 µM) | MBC (Staphylococcus aureus [12]): 4 µg/mL (≈ 10.5 µM) | MBC (Staphylococcus aureus [13]): 4 µg/mL (≈ 10.5 µM) | MBC (Staphylococcus aureus [14]): 8 µg/mL (≈ 21.1 µM) | MBC (Staphylococcus aureus [15]): 16 µg/mL (≈ 42.2 µM) | MBC (Staphylococcus aureus [16]): 2 µg/mL (≈ 5.27 µM) | MBC (Staphylococcus aureus [17]): 16 µg/mL (≈ 42.2 µM) | MBC [27]: 1 µg/mL (≈ 2.63 µM) | MBC (Enterococcus faecalis [18]): > 64 µg/mL | MBC (Enterococcus faecium [19]): 8 µg/mL (≈ 21.1 µM) | MBC (Listeria monocytogenes [28]): 32 µg/mL (≈ 84.3 µM) | MBC (Streptococcus pneumoniae [20]): 4 µg/mL (≈ 10.5 µM) | MBC (Streptococcus pneumoniae [29]): 8 µg/mL (≈ 21.1 µM) | MIC (Acinetobacter baumannii [30]): > 64 µg/mL | MIC (Escherichia coli [31]): > 64 µg/mL | MIC (Escherichia coli [32]): 64 µg/mL (≈ 169 µM) | MIC (Klebsiella pneumoniae [33]): > 64 µg/mL | MIC (Pseudomonas aeruginosa [34]): > 64 µg/mL | MBC (Acinetobacter baumannii [35]): > 64 µg/mL | MBC (Escherichia coli [36]): > 64 µg/mL | MBC (Escherichia coli [37]): > 64 µg/mL | MBC (Klebsiella pneumoniae [38]): > 64 µg/mL | MBC (Pseudomonas aeruginosa [39]): > 64 µg/mL | Activity (J774): Toxic | solubility kinetic at 2 h [40]: 50 µM (≈ 19 µg/mL)
